From patent publication EP0000816A1, “Substituted amino-pyridine derivatives, processes for their preparation and pharmaceutical compositions containing them” (BEECHAM GROUP PLC, priority 1977, dated 1979)

Test system: male albino rats (C.F.Y. strain)
Assay: Hypolipidaemic assay: serum total cholesterol and triglyceride in rats given compound in diet
Format: in vivo
Details: 0.1% in diet for seven days; for % Cholesterol Lowering: serum total cholesterol compared with controls; for % Triglyceride Lowering: serum triglyceride compared with controls
Experimental: Groups of 8 male albino rats (C.F.Y. strain), weighing approximately 150 g., were given a powdered commercially available diet (oxoid) to which compounds were added at level of 0.1%. These diets were fed for seven days. The rats were then killed and their serum total cholesterol and triglyceride were measured by the Technicon Autoanalyser.

SMILES | % Cholesterol Lowering [%] | % Triglyceride Lowering [%]
O=C(O)c1ccc(NCCCc2ccccc2)nc1 | 16 | 38
O=C(O)c1ccc(NCc2ccccc2)nc1 | 34 | 30
